Data: publication PMC6713262 (Cell, 2019)

Tests used:
Assay type in all cases: cell-based
[1] = target: CB2 T127A (Homo sapiens, UniProt P34972, T127A); test: Receptor activity at CB2 stabilizing point mutant T127A
[2] = target: CB2 G304E (Homo sapiens, UniProt P34972, G304E); test: Receptor activity at CB2 stabilizing point mutant G304E
[3] = target: wild-type CB2 (Homo sapiens, UniProt P34972); test: Forskolin-stimulated cAMP accumulation
[4] = target: CB2 G78L (Homo sapiens, UniProt P34972, G78L); test: Receptor activity at CB2 stabilizing point mutant G78L
Chain of CB2 G78L (P34972 whole entry G78L): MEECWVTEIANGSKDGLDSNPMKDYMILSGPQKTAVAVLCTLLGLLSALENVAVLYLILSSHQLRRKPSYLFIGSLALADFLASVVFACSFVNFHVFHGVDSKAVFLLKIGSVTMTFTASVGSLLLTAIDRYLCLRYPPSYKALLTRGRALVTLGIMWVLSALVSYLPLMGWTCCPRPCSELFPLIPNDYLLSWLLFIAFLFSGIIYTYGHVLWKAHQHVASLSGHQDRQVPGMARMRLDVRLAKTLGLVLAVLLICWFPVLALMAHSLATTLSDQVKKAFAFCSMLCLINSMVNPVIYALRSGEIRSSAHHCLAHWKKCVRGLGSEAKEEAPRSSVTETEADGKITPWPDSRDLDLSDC

[5] = target: CB2 R242E (Homo sapiens, UniProt P34972, R242E); test: Receptor activity at CB2 stabilizing point mutant R242E
Chain of CB2 R242E (P34972 whole entry R242E): as the sequence (P34972 whole entry G78L) above, with L78G, R242E counted along it

[6] = target: CB2 T153L (Homo sapiens, UniProt P34972, T153L); test: Receptor activity at CB2 stabilizing point mutant T153L
Chain of CB2 T153L (P34972 whole entry T153L): as the sequence (P34972 whole entry G78L) above, with L78G, T153L counted along it

[7] = target: CB1 (Homo sapiens, UniProt P21554); test: β-arrestin2 recruitment assay at CB1; details: for Emax (fold): CB1 β-arrestin2
Chain of CB1 (P21554 whole entry): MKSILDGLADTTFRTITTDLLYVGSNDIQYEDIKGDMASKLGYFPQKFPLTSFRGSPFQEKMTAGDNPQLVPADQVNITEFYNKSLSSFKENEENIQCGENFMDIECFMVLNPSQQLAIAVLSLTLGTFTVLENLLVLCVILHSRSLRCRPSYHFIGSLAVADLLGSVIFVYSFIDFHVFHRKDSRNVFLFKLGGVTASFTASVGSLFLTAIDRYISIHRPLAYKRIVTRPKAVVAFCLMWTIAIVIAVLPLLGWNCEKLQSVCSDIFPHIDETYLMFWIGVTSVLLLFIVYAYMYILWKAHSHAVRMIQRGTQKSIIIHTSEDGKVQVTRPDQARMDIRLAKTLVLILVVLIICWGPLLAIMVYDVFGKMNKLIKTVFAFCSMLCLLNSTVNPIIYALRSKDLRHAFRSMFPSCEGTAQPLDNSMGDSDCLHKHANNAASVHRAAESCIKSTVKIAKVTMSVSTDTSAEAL

[8] = target: CB2 (Homo sapiens, UniProt P34972); test: β-arrestin2 recruitment assay; details: for Emax (fold): CB2 β-arrestin2; for EC50: EC50, CB2 β-arrestin2
Chain of CB2 (P34972 whole entry): as the sequence (P34972 whole entry G78L) above, with L78G counted along it

Chain of wild-type CB2 (P34972 whole entry): as the sequence (P34972 whole entry G78L) above, with L78G counted along it
Chain of CB2 T127A (P34972 whole entry T127A): as the sequence (P34972 whole entry G78L) above, with L78G, T127A counted along it
Chain of CB2 G304E (P34972 whole entry G304E): as the sequence (P34972 whole entry G78L) above, with L78G, G304E counted along it

Cc1c(C(=O)NC23CC4CC(CC(C4)C2)C3)nn(CCCCCO)c1-c1ccccc1 [AM10257, 1-(5-Hydroxypentyl)-4-methyl-5-phenyl-N-tricyclo[3.3.1.1^3,7]dec-1-yl-1H-pyrazole-3-carboxamide]
IC50 [1]: 40.1 ± 4.5 nM
IC50 [2]: 32.1 ± 6.2 nM
IC50 [3]: 35.9 ± 3.2 nM
Kb [3]: 5.01 nM
Functional profile at CB2 (adenylyl cyclase assay) ([3]; against CP55,940, Figure 1B): competitive antagonist/inverse agonist
IC50 [4]: 59.7 ± 8.1 nM
IC50 [5]: 46.7 ± 11.3 nM
IC50 [6]: 46.2 ± 4.6 nM
EC50 [7]: 51.5 ± 7.4 nM
Functional profile at CB1 (β-arrestin2 recruitment) [7]: partial agonist
Emax (fold) ([7]; Figure 5C): 2.4 ± 0.1 fold
Functional profile at CB2 (β-arrestin2 recruitment) [8]: competitive antagonist/inverse agonist
Emax (fold) ([8]; Figure 1C): 0.70 ± 0.05 fold
EC50 ([8]; Figure 1C): 0.53 ± 0.29 nM
EC50 ([8]; Figure 6C): 0.2 ± 0.04 nM

CC(=O)OCCn1c(C)c(C)sc1=NC(=O)C1C(C)(C)C1(C)C [MRI2594, 2-(4,5-dimethyl-2-((2,2,3,3-tetramethylcyclopropane-1-carbonyl)imino)thiazol-3(2H)-yl)ethyl acetate]
EC50 [7]: 310 ± 54 nM
Functional profile at CB1 (β-arrestin2 recruitment) [7]: agonist
Emax (fold) ([7]; Figure 6D): 28.0 ± 2.0 fold
Functional profile at CB2 (β-arrestin2 recruitment) [8]: agonist
Emax (fold) ([8]; Figure 6C): 2.0 ± 0.2 fold
EC50 ([8]; Figure 6C): 0.17 ± 0.03 nM

CC(=O)OCCn1c(=NC(=O)C2C(C)(C)C2(C)C)sc2cc(C)ccc21 [MRI2687, 2-(6-methyl-2-((2,2,3,3-tetramethylcyclopropane-1-carbonyl)imino)benzo[d]thiazol-3(2H)-yl)ethyl acetate]
EC50 [7]: 114 ± 15 nM
Functional profile at CB1 (β-arrestin2 recruitment) [7]: partial agonist
Emax (fold) ([7]; Figure 6D): 6.0 ± 0.3 fold
Functional profile at CB2 (β-arrestin2 recruitment) [8]: inverse agonist
Emax (fold) ([8]; Figure 6C): 0.75 ± 0.04 fold
EC50 ([8]; Figure 6C): 0.24 ± 0.06 nM
